In patent US20230329236A1, “HERBICIDAL PYRIMIDINE DERIVATIVES” (MoA Technology Limited, priority 2020, published 2023):

Experiments:
Avena fatua (AVEFA) = assay: Post-emergence glasshouse test, visual injury, AVEFA; format: in vivo; settings: Table 4, post-emergence, 14±1 days post application
Protocol: (§1) Seeds of a variety of test species are grown in a sandy loam soil mixture, Lolium multiflorum (LOLMU), Amaranthus retroflexus (AMARE), Echinochloa crus-gaffi (ECHCG), Veronica persica (VERPE), Glycine max (GLXMA), Oryza sativa (ORYSA), Zea mays (ZEAMX), spring wheat (TRZAS), Ipomoea hederacea (IPOHE), Ipomoea purpurea (PHBPU), Stellaria media (STEME), Solanum nigrum (SOLNI), Digitaria sanguinalis (DIGSA), Setaria italica (SETIT), Alopecurus myosuroides (ALOMY) and Avena fatua (AVEFA).
(§2) After sowing, at growth stage BBCH 12-14 (post-emergence), the plants are sprayed with an aqueous spray solution derived from the formulation of the technical active ingredient in acetone/water (50:50) solution containing 0.5% Tween 20 (polyoxyethlyene sorbitan monolaureate, CAS RN 9005-64-5). The test compounds are applied at the required concentration of active ingredient in g/ha. The test plants are then grown in a glasshouse under controlled environmental conditions and watered regularly as required. After 14±1 days post application (for post-emergence test), the test is evaluated by assessing the percentage damage caused to the plants in comparison with the untreated plots. The biological activities for post-emergence testing are shown below (Table 3 and Table 4) as a % visual injury.

[1] = tested on: Alopecurus myosuroides (ALOMY); assay: Post-emergence glasshouse test, visual injury, ALOMY; format: in vivo; settings: Table 4, post-emergence, 14±1 days post application
Protocol: as §1, §2

Glycine max (GLXMA) = assay: Post-emergence glasshouse test, visual injury, GLXMA; format: in vivo; settings: Table 4, post-emergence, 14±1 days post application
Protocol: as §1, §2

[2] = tested on: Echinochloa crus-gaffi (ECHCG); assay: Post-emergence glasshouse test, visual injury, ECHCG; format: in vivo, Echinochloa crus-galli; settings: 336 h, 14±1 days post application
In short: (§3)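 Percent visual injury relative to untreated plots is scored 14±1 days after treatment. Plants grow in sandy loam under controlled glasshouse conditions and are sprayed at BBCH 12-14 with an aqueous solution of compound in acetone/water (50:50) with 0.5% Tween 20, dosed in g/ha.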

Veronica persica (VERPE) = assay: Post-emergence glasshouse test, visual injury, VERPE; format: in vivo; settings: 336 h, 14±1 days post application
In short: as §3

Solanum nigrum (SOLNI) = assay: Post-emergence glasshouse test, visual injury, SOLNI; format: in vivo; settings: Table 4, post-emergence, 14±1 days post application
Protocol: as §1, §2

Setaria italica (SETIT) = assay: Post-emergence glasshouse test, visual injury, SETIT; format: in vivo; settings: Table 4, post-emergence, 14±1 days post application
Protocol: as §1, §2

[3] = tested on: Digitaria sanguinalis (DIGSA); assay: Post-emergence glasshouse test, visual injury, DIGSA; format: in vivo; settings: Table 4, post-emergence, 14±1 days post application
Protocol: as §1, §2

[4] = tested on: Lolium multiflorum (LOLMU); assay: Post-emergence glasshouse test, visual injury, LOLMU; format: in vivo; settings: 336 h, 14±1 days post application
In short: as §3

[5] = tested on: Ipomoea hederacea (IPOHE); assay: Post-emergence glasshouse test, visual injury, IPOHE; format: in vivo; settings: Table 4, post-emergence, 14±1 days post application
Protocol: as §1, §2

Stellaria media (STEME) = assay: Post-emergence glasshouse test, visual injury, STEME; format: in vivo; settings: Table 4, post-emergence, 14±1 days post application
Protocol: as §1, §2

spring wheat (TRZAS) = assay: Post-emergence glasshouse test, visual injury, TRZAS; format: in vivo; settings: Table 4, post-emergence, 14±1 days post application
Protocol: as §1, §2

Zea mays (ZEAMX) = assay: Post-emergence glasshouse test, visual injury, ZEAMX; format: in vivo; settings: Table 4, post-emergence, 14±1 days post application
Protocol: as §1, §2

Oryza sativa (ORYSA) = assay: Post-emergence glasshouse test, visual injury, ORYSA; format: in vivo; settings: Table 4, post-emergence, 14±1 days post application
Protocol: as §1, §2

[6] = tested on: Amaranthus retroflexus (AMARE); assay: Post-emergence glasshouse test, visual injury, AMARE; format: in vivo; settings: 336 h, 14±1 days post application
In short: as §3

Ipomoea purpurea (PHBPU) = assay: Post-emergence glasshouse test, visual injury, PHBPU; format: in vivo; settings: Table 4, post-emergence, 14±1 days post application
Protocol: as §1, §2

[7] = Table 4, post-emergence, 125 g/ha
[8] = Table 4, post-emergence, 250 g/ha
[9] = Table 4, post-emergence, 1000 g/ha

Structure (SMILES): Cc1cc(-c2cnc(NC3CCCC3)nc2C(C)C)on1 [Compound 45]
- AVEFA % visual injury (Avena fatua (AVEFA); 125 g/ha): 0%
- AVEFA % visual injury (Avena fatua (AVEFA); 250 g/ha): 40%
- AVEFA % visual injury (Avena fatua (AVEFA); 500 g/ha): 60%
- AVEFA % visual injury (Avena fatua (AVEFA); 1000 g/ha): 70%
- ALOMY % visual injury ([1]; 125 g/ha): 50%
- ALOMY % visual injury ([1]; 250 g/ha): 70%
- ALOMY % visual injury ([1]; 500 g/ha): 50%
- ALOMY % visual injury ([1]; 1000 g/ha): 80%
- GLXMA % visual injury (Glycine max (GLXMA); 125 g/ha): 20%
- GLXMA % visual injury (Glycine max (GLXMA); 250 g/ha): 50%
- GLXMA % visual injury (Glycine max (GLXMA); 500 g/ha): 40%
- GLXMA % visual injury (Glycine max (GLXMA); 1000 g/ha): 50%
- pest or weed control at 500 g/ha ([2]; Table 3, post-emergence): 100%
- pest or weed control at 125 g/ha [2, 7]: 70%
- pest or weed control at 250 g/ha [2, 8]: 80%
- pest or weed control at 500 g/ha ([2]; Table 4, post-emergence): 80%
- pest or weed control at 1000 g/ha [2, 9]: 90%
- pest or weed control at 500 g/ha (Veronica persica (VERPE); Table 3, post-emergence): 100%
- pest or weed control at 125 g/ha (Veronica persica (VERPE); [7]): 100%
- pest or weed control at 250 g/ha (Veronica persica (VERPE); [8]): 100%
- pest or weed control at 500 g/ha (Veronica persica (VERPE); Table 4, post-emergence): 100%
- pest or weed control at 1000 g/ha (Veronica persica (VERPE); [9]): 100%
- SOLNI % visual injury (Solanum nigrum (SOLNI); 125 g/ha): 98%
- SOLNI % visual injury (Solanum nigrum (SOLNI); 250 g/ha): 100%
- SOLNI % visual injury (Solanum nigrum (SOLNI); 500 g/ha): 100%
- SOLNI % visual injury (Solanum nigrum (SOLNI); 1000 g/ha): 100%
- SETIT % visual injury (Setaria italica (SETIT); 125 g/ha): 50%
- SETIT % visual injury (Setaria italica (SETIT); 250 g/ha): 80%
- SETIT % visual injury (Setaria italica (SETIT); 500 g/ha): 95%
- SETIT % visual injury (Setaria italica (SETIT); 1000 g/ha): 95%
- DIGSA % visual injury ([3]; 125 g/ha): 80%
- DIGSA % visual injury ([3]; 250 g/ha): 70%
- DIGSA % visual injury ([3]; 500 g/ha): 95%
- DIGSA % visual injury ([3]; 1000 g/ha): 98%
- pest or weed control at 500 g/ha ([4]; Table 3, post-emergence): 70%
- pest or weed control at 125 g/ha [4, 7]: 40%
- pest or weed control at 250 g/ha [4, 8]: 60%
- pest or weed control at 500 g/ha ([4]; Table 4, post-emergence): 90%
- pest or weed control at 1000 g/ha [4, 9]: 100%
- IPOHE % visual injury ([5]; 125 g/ha): 0%
- IPOHE % visual injury ([5]; 250 g/ha): 50%
- IPOHE % visual injury ([5]; 500 g/ha): 40%
- IPOHE % visual injury ([5]; 1000 g/ha): 60%
- STEME % visual injury (Stellaria media (STEME); 125 g/ha): 100%
- STEME % visual injury (Stellaria media (STEME); 250 g/ha): 100%
- STEME % visual injury (Stellaria media (STEME); 500 g/ha): 100%
- STEME % visual injury (Stellaria media (STEME); 1000 g/ha): 100%
- TRZAS % visual injury (spring wheat (TRZAS); 125 g/ha): 0%
- TRZAS % visual injury (spring wheat (TRZAS); 250 g/ha): 30%
- TRZAS % visual injury (spring wheat (TRZAS); 500 g/ha): 30%
- TRZAS % visual injury (spring wheat (TRZAS); 1000 g/ha): 40%
- ZEAMX % visual injury (Zea mays (ZEAMX); 125 g/ha): 0%
- ZEAMX % visual injury (Zea mays (ZEAMX); 250 g/ha): 0%
- ZEAMX % visual injury (Zea mays (ZEAMX); 500 g/ha): 70%
- ZEAMX % visual injury (Zea mays (ZEAMX); 1000 g/ha): 40%
- ORYSA % visual injury (Oryza sativa (ORYSA); 125 g/ha): 50%
- ORYSA % visual injury (Oryza sativa (ORYSA); 250 g/ha): 99%
- ORYSA % visual injury (Oryza sativa (ORYSA); 500 g/ha): 90%
- ORYSA % visual injury (Oryza sativa (ORYSA); 1000 g/ha): 80%
- pest or weed control at 500 g/ha ([6]; Table 3, post-emergence): 100%
- pest or weed control at 125 g/ha [6, 7]: 95%
- pest or weed control at 250 g/ha [6, 8]: 90%
- pest or weed control at 500 g/ha ([6]; Table 4, post-emergence): 100%
- pest or weed control at 1000 g/ha [6, 9]: 100%
- PHBPU % visual injury (Ipomoea purpurea (PHBPU); 125 g/ha): 50%
- PHBPU % visual injury (Ipomoea purpurea (PHBPU); 250 g/ha): 70%
- PHBPU % visual injury (Ipomoea purpurea (PHBPU); 500 g/ha): 70%
- PHBPU % visual injury (Ipomoea purpurea (PHBPU); 1000 g/ha): 70%
